Our source for the IC50 values is ChEMBL document CHEMBL3351300, “GnRH antagonists: the promise of treating sex-hormone-related diseases” (ACS Med Chem Lett, 2014).

The experiment deals with T1, Gonadotropin-releasing hormone receptor (Homo sapiens, UniProt P30968).
T1 sequence (P30968 whole entry): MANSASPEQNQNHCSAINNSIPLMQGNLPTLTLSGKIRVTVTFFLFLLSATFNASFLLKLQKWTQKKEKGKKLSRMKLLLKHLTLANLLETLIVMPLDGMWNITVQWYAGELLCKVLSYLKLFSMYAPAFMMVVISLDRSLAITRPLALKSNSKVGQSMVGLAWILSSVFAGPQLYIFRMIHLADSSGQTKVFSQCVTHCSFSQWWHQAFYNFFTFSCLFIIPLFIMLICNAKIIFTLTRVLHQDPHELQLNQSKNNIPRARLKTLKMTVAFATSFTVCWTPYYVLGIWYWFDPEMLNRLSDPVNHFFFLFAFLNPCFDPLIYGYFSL
Nature of the experiment: Antagonist activity against human GnRH receptor expressed in CHO cells by IP-one HTRF assay. It counts as cell-based. (Time-resolved FRET reads energy transfer from a long-lived donor to a nearby acceptor.)

As to `O=C(NCc1ncc(Cl)cc1C(F)(F)F)c1ccc2c(c1)C1(CCS(=O)(=O)CC1)C(C1CC1)N2S(=O)(=O)c1ccc(F)cc1` (single isomer, unassigned; enantiomer 1), the half-inhibitory concentration (IC50) (in general, the concentration that inhibits the measured activity by half) was found to be 0.0033 µM.

Turning to `N#Cc1cccc(S(=O)(=O)N2c3ccc(C(=O)NCc4ncc(C(F)(F)F)cc4F)cc3C3(CCS(=O)(=O)CC3)C2C2CC2)c1` (single isomer, unassigned; enantiomer 1), the IC50 was 0.107 µM.

Consider `O=C(NCc1ncc(C(F)(F)F)cc1Cl)c1ccc2c(c1)C1(CCS(=O)(=O)CC1)C(C1CC1)N2S(=O)(=O)c1cccc(OC(F)(F)F)c1` (single isomer, unassigned; enantiomer 1), for which the 50% inhibitory concentration (IC50) came to 0.068 µM.

Compound `O=C(NCc1ncc(C(F)(F)F)cc1Cl)c1ccc2c(c1)C1(CCS(=O)(=O)CC1)C(C1CC1)N2S(=O)(=O)c1ccc(Cl)cc1` (single isomer, unassigned; enantiomer 1) registered a concentration for half-maximal inhibition (IC50) of 9.35 µM.

As to `O=C(NCc1ncc(Cl)cc1C(F)(F)F)c1ccc2c(c1)C1(CCS(=O)(=O)CC1)C(C1CC1)N2S(=O)(=O)c1ccc(F)cc1` (single isomer, unassigned; enantiomer 2), the IC50 came to 4.08 µM.

`N#Cc1cccc(S(=O)(=O)N2c3ccc(C(=O)NCc4ncc(C(F)(F)F)cc4F)cc3C3(CCS(=O)(=O)CC3)C2C2CC2)c1` (single isomer, unassigned; enantiomer 2) yielded a half-maximal inhibitory concentration (IC50) of 2.31 µM.

On to `O=C(NCc1ncc(C(F)(F)F)cc1Cl)c1ccc2c(c1)C1(CCS(=O)(=O)CC1)C(C1CC1)N2S(=O)(=O)c1cccc(OC(F)(F)F)c1` (single isomer, unassigned; enantiomer 2), for which it took 4.21 µM to reach half-maximal inhibition (IC50).

`O=C(NCc1ncc(C(F)(F)F)cc1Cl)c1ccc2c(c1)C1(CCS(=O)(=O)CC1)C(C1CC1)N2S(=O)(=O)c1ccc(Cl)cc1` (single isomer, unassigned; enantiomer 2) gave an IC50 of 0.0055 µM.
